Measured values taken from patent US12291508B2, “Hydrazide containing nuclear transport modulators and uses thereof” (Karyopharm Therapeutics Inc., priority 2011, dated 2025).
Counter-ions that a name gives are not always drawn.

Experiments:
HCC-1569 = assay: Cell proliferation assay, HCC-1569; format: cell-based; details: Homo sapiens, HCC1569; HCC-1569, type BaA, 72 h
Protocol: (§1) The cells were seeded at 5×10^3 to 1.5×10^4 cells (depending on cell type) in each well of a 96-well plate in 100 μL of fresh culture medium and adherent cells were allowed to attach overnight. The stock solutions of the compounds were diluted in cell culture medium to obtain eight concentrations of each drug, ranging from 1 nM to 30 μM and DMSO at less than 1% v/v was used as a negative control. The resulting drug solutions were transferred onto the cells. After 72 h of treatment, 20 μl of CellTiter 96® AQueous reagent was added into each well of the 96-well assay plates and the plate was incubated at 37° C. for 1-4 hours in a humidified, 5% CO2 atmosphere. Then the absorbance of each well was recorded at 490 nm using a 96-well plate reader. In most cases, the assay was performed in triplicate and the results were presented as half maximal inhibitory concentration (IC50).

MDA-MB-231 cells = assay: Long-term growth assay, MDA-MB-231; format: cell-based; details: MDA-MB-231, 1 μM, 10 days, crystal violet
From the text: At the end of the assay, media was removed from the cells and the remaining cells were stained with crystal violet.

HCC-1428 = assay: Cell proliferation assay, HCC-1428; format: cell-based; details: Homo sapiens, HCC1428; HCC-1428, type Lu, 72 h
Protocol: as §1

[1] = system: MM.1S multiple myeloma cell line; assay: CellTiter 96 AQueous One Solution cell proliferation assay, MM.1S; format: cell-based; details: Homo sapiens, MM1.S, 72 h of treatment, read-out: Cytotoxicity Assay
From the text: The CellTiter 96® AQueous One Solution cell proliferation assay (Promega) was used on MM.1S multiple myeloma cell line to study the cytotoxic and cytostatic properties of the compounds. The assay is based on the cleavage of the tetrazolium salt, MTS, in the presence of an electron-coupling reagent PES (phenazine ethosulfate). The MTS tetrazolium compound is bioreduced by cells into a colored formazan product that is soluble in tissue culture medium. This conversion is presumably accomplished by NADPH or NADH produced by dehydrogenase enzymes in metabolically active cells. Assays are performed by adding a small amount of the CellTiter 96® AQueous One solution reagent directly to culture wells, incubating for 1-4 hours and then recording the absorbance at 490 nm with a 96-well plate reader.
as §1, with “cells” for “cells (depending on cell type)”, “(IC50). Optical density versus compound concentration was plotted and analyzed using non-linear regression equations (IDBS XLfit) and the IC50 for each compound was calculated.” for “(IC50).”

MCF10A = assay: Cell proliferation assay, MCF10A; format: cell-based; details: Homo sapiens, MCF-10A, type BaB, 72 h
Protocol: as §1

HS578T cells = assay: Anti-apoptosis and cell cycle proteins immunoblot, HS578T; format: cell-based; details: increasing concentrations, 24 hours
DU4475 luminal BC cells = assay: Apoptosis marker immunoblot, DU4475; format: cell-based; details: DU4475, 0 to 10 μM, 24 hours
Protocol: MDA-MB-468 TNBC, DU4475 and HS578T TNBC cells were exposed to concentrations of Compound 1-3 ranging from 0 to 10 μM for 24 hours. After 24 hours, whole protein cell extracts were run on immunoblots and were exposed to antibodies against the proteins indicated in FIGS. 2A-2C.

DU4475 = assay: Cell proliferation assay, DU4475; format: cell-based; details: Homo sapiens, DU-4475; DU4475, type Lu, 72 h
Protocol: as §1

MDA-MB-468 = assay: Cell proliferation assay, MDA-MB-468; format: cell-based; details: Homo sapiens; MDA-MB-468, after 72 hours
Protocol: as §1

[2] = target: T1, CRM1-mediated nuclear export (Homo sapiens, UniProt O14980); assay: RevGFP assay, inhibition of nuclear export; format: cell-based; details: U2OS-RevGFP cells, about 1 hr incubation; read-out: Rev Export
T1 construct: endogenous in cells; host or cells: U2OS-RevGFP cells
T1 sequence (O14980 whole entry): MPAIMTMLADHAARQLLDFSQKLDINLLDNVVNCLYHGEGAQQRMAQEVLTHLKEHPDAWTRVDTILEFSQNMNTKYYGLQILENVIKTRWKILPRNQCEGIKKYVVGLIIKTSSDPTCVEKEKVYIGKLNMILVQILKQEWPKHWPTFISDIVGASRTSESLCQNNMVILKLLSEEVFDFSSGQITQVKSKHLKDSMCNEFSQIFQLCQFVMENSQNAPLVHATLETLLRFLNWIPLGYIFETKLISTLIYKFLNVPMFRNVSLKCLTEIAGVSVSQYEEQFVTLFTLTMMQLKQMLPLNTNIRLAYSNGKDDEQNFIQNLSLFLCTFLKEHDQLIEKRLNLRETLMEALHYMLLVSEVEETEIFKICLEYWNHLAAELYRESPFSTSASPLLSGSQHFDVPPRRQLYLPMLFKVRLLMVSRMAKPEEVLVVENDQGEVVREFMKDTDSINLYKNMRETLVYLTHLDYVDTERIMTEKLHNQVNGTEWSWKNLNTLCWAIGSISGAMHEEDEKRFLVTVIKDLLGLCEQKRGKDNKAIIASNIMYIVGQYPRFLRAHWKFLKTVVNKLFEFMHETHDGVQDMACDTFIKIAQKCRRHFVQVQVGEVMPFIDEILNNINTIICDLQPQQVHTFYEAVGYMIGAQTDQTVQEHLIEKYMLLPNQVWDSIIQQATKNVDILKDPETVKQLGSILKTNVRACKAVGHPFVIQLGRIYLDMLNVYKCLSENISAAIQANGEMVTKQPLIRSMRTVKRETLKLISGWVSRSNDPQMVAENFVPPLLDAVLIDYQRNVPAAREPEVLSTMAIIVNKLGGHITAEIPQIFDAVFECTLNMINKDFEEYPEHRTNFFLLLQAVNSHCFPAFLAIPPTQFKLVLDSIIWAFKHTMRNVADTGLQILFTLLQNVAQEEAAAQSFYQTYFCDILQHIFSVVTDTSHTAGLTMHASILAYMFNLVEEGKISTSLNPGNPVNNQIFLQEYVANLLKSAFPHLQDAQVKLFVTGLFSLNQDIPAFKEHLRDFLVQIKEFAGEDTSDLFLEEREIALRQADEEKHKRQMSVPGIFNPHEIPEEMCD
Protocol: The ability of exemplary compounds of the invention to inhibit CRM1-mediated nuclear export was assessed in a RevGFP assay. Rev is a protein from human immunodeficiency virus type 1 (HIV-1) and contains a nuclear export signal (NES) in its C-terminal domain and a nuclear localization signal (NLS) in its N-terminal domain. Nuclear export of Rev protein is dependent on the classical NES/CRM1 pathway (Neville et al. 1997).
In this assay, U2OS-RevGFP cells were seeded onto clear-bottomed, black, 384-well plates the day before the experiment. Compounds were serially diluted 1:2 in DMEM, starting from 40 μM in a separate, 384-well plate, and then transferred onto the cells. The cells were incubated with compound for about 1 hr before fixation with 3.7% formaldehyde and nuclei staining with Hoechst 33258. The amount of GFP in cell nuclei was measured and the IC50 of each compound was determined (Kau et al. 2003).

[3] = system: obese (fa/fa) Zucker rats; format: in vivo
Protocol: Male Zucker (fa/fa) rats and male Zucker lean rats (both from Charles River) at 10 weeks of age—a timepoint at which the Zucker fa/fa rats should show elevated food intake, body mass and elevated plasma lipid profile relative to their “lean” counterparts were singly housed in plastic bottomed cages and were given 14 days of habituation. During this period, animal body weight, food and water intakes were recorded daily. All animals were given ad-lib access to standard lab chow and water throughout the study. Once the 14 day baseline intake data were collected, the Zucker obese rats were assigned into treatment groups based on equivalent baseline data, i.e. all Zucker obese rats had equivalent daily food/water intakes and body weights. During this phase the rats also received two vehicle administrations as familiarisation to the dosing procedure. Immediately after the baseline phase, the treatment phase commenced. Test article and vehicle were administered at approximately 1 h prior to onset of the dark cycle. Dose scheduling varied according to group: 5× weekly dosing was Monday-Friday The study design was the following: Group A=Zucker lean male rats, vehicle treatment 5× week, oral, n=6, Group B=Zucker obese male rats, vehicle treatment 5× week, oral, n=6, Group C=Zucker obese male rats, I-4 2.5 mg/kg 5× week, oral, n=6.
Daily body weight, food and water intake were measured at approximately the same time of the day. At day −1 and day 7 of treatment phase.

Compound | IC50 (HCC-1569) [nM] | long-term growth (MDA-MB-231 cells) | IC50 (HCC-1428) [µM] | IC50 [1] [nM] | IC50 (MCF10A) [nM] | MCL-1 protein level (HS578T cells) | apoptosis (PARP, caspase 3, cleaved PARP, cleaved caspase 3) (DU4475 luminal BC cells) | IC50 (DU4475) [nM] | IC50 (MDA-MB-468) [nM] | IC50 [2] [nM] | mean and cumulative food intake ([3]; 2.5 mg/kg 5× weekly, oral, obese (fa/fa) Zucker rats) | body weight gain ([3]; 2.5 mg/kg 5× weekly, oral, compared to Zucker fa/fa controls) | body weight gain after washout ([3]; 2 day washout phase, compared to Zucker fa/fa controls)
O=C(/C=C\n1cnc(-c2cc(C(F)(F)F)cc(C(F)(F)F)c2)n1)NNc1cnccn1 [Compound I-3, (Z)-3-(3-(3,5-bis(trifluoromethyl)phenyl)-1H-1,2,4-triazol-1-yl)-N′-(pyrazin-2-yl)acrylohydrazide] | 960 | inhibited the long-term growth | 10.4 | ≤ 1000 | 180 | a reduction in MCL-1 is observed | induces apoptosis | 13 | 10 | – | – | – | –
O=C(/C=C\n1cnc(-c2cc(C(F)(F)F)cc(C(F)(F)F)c2)n1)NNc1ccccn1 [Compound I-4, (Z)-3-(3-(3,5-bis(trifluoromethyl)phenyl)-1H-1,2,4-triazol-1-yl)-N′-(pyridin-2-yl)acrylohydrazide hydrochloride] | – | – | – | ≤ 1000 | – | – | – | – | – | ≤ 1000 | reduced mean and cumulative food intake | significantly reduced weight gain | body weight gain still reduced
